Converted amounts (≈) assume the structure as drawn. Where two headings read alike, the source gives them in different places.
Columns and labels:
[1] = FRAP assay (ferric-ion reducing antioxidant power); settings: mean ± SD
Description: (§1) To evaluate the antioxidant ability of the tested systems, antioxidant analysis was performed. Antioxidants can scavenge hydroxyl radicals in two ways: by reacting directly with hydroxyl radicals (DPPH^•, ABTS^•+) or indirectly inhibiting the formation of hydroxyl radicals by chelating metal ions involved in the production of hydroxyl radicals. The antioxidant activity of the systems studied was investigated by using DPPH^• scavenging, ABTS^•+ scavenging ability, and Fe^2+-chelating ability. In this study, the antioxidant activity of pure hesperetin and its Schiff bases (HHSB, HIN, and HTSC) and HP-β-CD complexes were compared, and the positive control was Trolox.
The antioxidant capacity determined by the FRAP assay (the ability of plasma to reduce iron) was carried out using a modification of the FRAP assay. The FRAP reagent consisted of the following solutions: 300 mM acetate, pH 3.6 glacial acetic acid buffer, 20 mM ferric chloride (FeCl3×6H2O), and 10 mM 2,4,6-tripyridyl-S-triazine (TPTZ) prepared in 40 mM HCl. The aforementioned solutions were mixed together in a ratio of 10:1:1 (v/v/v). The FRAP assay consisted of adding 15 µL of sample to 1.98 mL of reagent and incubating the mixture at 37 °C for 4 min. Absorbance measurement was recorded at 593 nm against a blank. Total antioxidant capacity was estimated relative to a standard of known FRAP concentration, ferrous sulfate.

[2] = Phase solubility studies with HP-β-CD; format: physicochemical; settings: for solubility at 60 min: thermodynamic from solid
Description: The purpose of this part of the study was to determine the solubility of compounds of hesperetin and its Schiff bases (HHSB, HIN, and HTSC) in aqueous solution at different pHs and temperatures, and the effect of their inclusion in modified HP-β-CD on the aqueous solubility of these compounds at different pH values.
The effect of the presence of HP-β-CD at different temperatures (25, 37, and 60 °C) was determined by developing phase solubility diagrams.
In accordance with the methodology described in Section 3.4, excess amounts of each tested substance were added to aqueous solution with increasing concentration of HP-β-CD up to 16 mM, respectively, in 2 mL of 100 mM sodium acetate buffer (pH 3.6), 100 mM sodium phosphate buffer (pH 6.5) or 100 mM sodium borate buffer (pH 8.5).
Phase solubility studies were conducted according to [64] with some modifications. Excess amounts of each tested substance were added to aqueous solution with increasing concentration of HP-β-CD up to 16 mM, in 2 mL of 100 mM sodium acetate buffer (pH 3.6), 100 mM sodium phosphate buffer (pH 6.5), or 100 mM sodium borate buffer (pH 8.5), respectively. The samples were maintained in an ultrasonic bath at various temperatures (25, 37, and 60 °C) for 60 min to reach equilibrium. The aqueous solutions were then filtered through 0.45 µm acetate cellulose (CA) membrane filter and diluted. The tested compound concentration on each clear filtrate was spectrophotometrically determined by measuring at their wavelength maximum.
The complexation constant (Kc) between studied molecules and HP-β-CD was determined by using Equation (1):(1) Kc=slope/S0 (1−slope) where S0 means the water solubility of the studied substance, and “slope” means the slope of the phase solubility diagram.
Complexation efficiency was calculated from the slope of the phase solubility diagram using Equation (2):(2) CE=S0×Kc=slope/1−slope
The CE was also applied to evaluate the molar ratio in solution of tested systems using Equation (3):(3) Compound:HP−β−CD=1:(1+1/CE)

[3] = DPPH assay (antioxidant activity); settings: concentration 0.1 mg/mL, mean ± SD
Description: as §1
The detailed methodology of DPPH assay was described in the previous paper by Sykuła et al..

[4] = ABTS^•+ radical cation decolorization assay; settings: concentration 0.1 mg/mL, mean ± SD
Description: as §1
Antioxidant activity using ABTS^•+ cation radical scavenging was determined according to a modified method. ABTS solution (2.5 mM) was mixed with 1.0 mM potassium persulfate solution and left at room temperature in the dark for 12-24 h. After this time, the absorbance of the finished ABTS^•+ solution was corrected with ethanol to 0.70 ± 0.02 at 745 nm. A total of 100 µL of the sample was reacted for 5 min with 2 mL of ABTS^•+ solution (A745 nm = 0.70 ± 0.02). The absorbance value of the reaction mixture was measured at 745 nm. […] Scavenging activity (%) = [1 − (Asample − Ablank)/Acontrol] × 100%(4) where Acontrol is the absorbance value of the control (ABTS^•+ solution with water), Ablank is the absorbance value of samples mixed with anhydrous ethanol, and Asample is the absorbance value of the added test sample to ABTS^•+ solution at 745 nm, respectively.

**Q.** Which FRAP antioxidant activity [1] does the source give for COc1ccc(C2CC(=O)c3c(O)cc(O)cc3O2)cc1O (stereo not shown) [Hesperetin, 3′,5,7-Trihydroxy-4′-methoxyflavanone] here?
**A.** 0.0005 ± 0.0005 mmolFe(II)/L

**Q.** What about the CE complexation efficiency ([2]; 25 °C, pH 3.6, with HP-β-CD) of the same molecule?
**A.** 34.7%

**Q.** And the Kc complexation constant ([2]; 25 °C, pH 3.6, with HP-β-CD)?
**A.** 3221 ± 358 M⁻¹

**Q.** What about the “increase of solubility with HP-β-CD” value ([2]; 25 °C, pH 6.5, HP-β-CD at 16 mM) of the same molecule?
**A.** five-fold

**Q.** What about the CE complexation efficiency ([2]; 25 °C, pH 6.5, with HP-β-CD) of the same molecule?
**A.** 248%

**Q.** What about the Kc complexation constant ([2]; 25 °C, pH 6.5, with HP-β-CD) of the same molecule?
**A.** 11933 ± 1949 M⁻¹

**Q.** And the CE complexation efficiency ([2]; 25 °C, pH 8.5, with HP-β-CD)?
**A.** 80.4%

**Q.** And the Kc complexation constant ([2]; 25 °C, pH 8.5, with HP-β-CD)?
**A.** 2513 ± 143 M⁻¹

**Q.** What about the CE complexation efficiency ([2]; 37 °C, pH 3.6, with HP-β-CD) of the same molecule?
**A.** 44.4%

**Q.** And the Kc complexation constant ([2]; 37 °C, pH 3.6, with HP-β-CD)?
**A.** 3171 ± 887 M⁻¹

**Q.** What about the CE complexation efficiency ([2]; 37 °C, pH 6.5, with HP-β-CD) of the same molecule?
**A.** 25%

**Q.** And the Kc complexation constant ([2]; 37 °C, pH 6.5, with HP-β-CD)?
**A.** 2280 ± 152 M⁻¹

**Q.** And the CE complexation efficiency ([2]; 37 °C, pH 8.5, with HP-β-CD)?
**A.** 19%

**Q.** And the Kc complexation constant ([2]; 37 °C, pH 8.5, with HP-β-CD)?
**A.** 1703 ± 163 M⁻¹

**Q.** What about the CE complexation efficiency ([2]; 60 °C, pH 3.6, with HP-β-CD) of the same molecule?
**A.** 34%

**Q.** And the Kc complexation constant ([2]; 60 °C, pH 3.6, with HP-β-CD)?
**A.** 2566 ± 144 M⁻¹

**Q.** And the CE complexation efficiency ([2]; 60 °C, pH 6.5, with HP-β-CD)?
**A.** 11%

**Q.** And the Kc complexation constant ([2]; 60 °C, pH 6.5, with HP-β-CD)?
**A.** 1179 ± 888 M⁻¹

**Q.** What about the CE complexation efficiency ([2]; 60 °C, pH 8.5, with HP-β-CD) of the same molecule?
**A.** 37%

**Q.** What about the Kc complexation constant ([2]; 60 °C, pH 8.5, with HP-β-CD) of the same molecule?
**A.** 2365 ± 221 M⁻¹

**Q.** And the solubility at 60 min ([2]; aqueous buffer, 25 °C, pH 3.6 sodium acetate buffer, without cyclodextrin, read-out: solubility without HP-β-CD (value in brackets) (converted))?
**A.** 50 µM (≈ 15.1 µg/mL)

**Q.** And the solubility at 60 min ([2]; aqueous buffer, 25 °C, pH 6.5 sodium phosphate buffer, without cyclodextrin, read-out: solubility without HP-β-CD (value in brackets) (converted))?
**A.** 49 µM (≈ 14.8 µg/mL)

**Q.** What about the solubility at 60 min ([2]; aqueous buffer, 25 °C, pH 8.5 sodium borate buffer, without cyclodextrin, read-out: solubility without HP-β-CD (value in brackets) (converted)) of the same molecule?
**A.** 280 µM (≈ 84.6 µg/mL)

**Q.** And the solubility at 60 min ([2]; aqueous buffer, 37 °C, pH 3.6 sodium acetate buffer, without cyclodextrin, read-out: solubility without HP-β-CD (value in brackets) (converted))?
**A.** 80 µM (≈ 24.2 µg/mL)

**Q.** What about the solubility at 60 min ([2]; aqueous buffer, 37 °C, pH 6.5 sodium phosphate buffer, without cyclodextrin, read-out: solubility without HP-β-CD (value in brackets) (converted)) of the same molecule?
**A.** 85 µM (≈ 25.7 µg/mL)

**Q.** And the solubility at 60 min ([2]; aqueous buffer, 37 °C, pH 8.5 sodium borate buffer, without cyclodextrin, read-out: solubility without HP-β-CD (value in brackets) (converted))?
**A.** 98 µM (≈ 29.6 µg/mL)

**Q.** And the solubility at 60 min ([2]; aqueous buffer, 60 °C, pH 3.6 sodium acetate buffer, without cyclodextrin, read-out: solubility without HP-β-CD (value in brackets) (converted))?
**A.** 95 µM (≈ 28.7 µg/mL)

**Q.** What about the solubility at 60 min ([2]; aqueous buffer, 60 °C, pH 6.5 sodium phosphate buffer, without cyclodextrin, read-out: solubility without HP-β-CD (value in brackets) (converted)) of the same molecule?
**A.** 82 µM (≈ 24.8 µg/mL)

**Q.** What about the solubility at 60 min ([2]; aqueous buffer, 60 °C, pH 8.5 sodium borate buffer, without cyclodextrin, read-out: solubility without HP-β-CD (value in brackets) (converted)) of the same molecule?
**A.** 120 µM (≈ 36.3 µg/mL)

**Q.** What about the solubility at 60 min ([2]; 25 °C, pH 3.6 sodium acetate buffer, with HP-β-CD, read-out: S0 (solubility with HP-β-CD)) of the same molecule?
**A.** 108 ± 4 µM (≈ 32.6 µg/mL)

**Q.** And the solubility at 60 min ([2]; 25 °C, pH 6.5 sodium phosphate buffer, with HP-β-CD, read-out: S0 (solubility with HP-β-CD))?
**A.** 208 ± 110 µM (≈ 62.9 µg/mL)

**Q.** What about the solubility at 60 min ([2]; 25 °C, pH 8.5 sodium borate buffer, with HP-β-CD, read-out: S0 (solubility with HP-β-CD)) of the same molecule?
**A.** 320 ± 32 µM (≈ 96.7 µg/mL)

**Q.** And the solubility at 60 min ([2]; 37 °C, pH 3.6 sodium acetate buffer, with HP-β-CD, read-out: S0 (solubility with HP-β-CD))?
**A.** 140 ± 40 µM (≈ 42.3 µg/mL)

**Q.** And the solubility at 60 min ([2]; 37 °C, pH 6.5 sodium phosphate buffer, with HP-β-CD, read-out: S0 (solubility with HP-β-CD))?
**A.** 110 ± 30 µM (≈ 33.3 µg/mL)

**Q.** What about the solubility at 60 min ([2]; 37 °C, pH 8.5 sodium borate buffer, with HP-β-CD, read-out: S0 (solubility with HP-β-CD)) of the same molecule?
**A.** 110 ± 10 µM (≈ 33.3 µg/mL)

**Q.** What about the solubility at 60 min ([2]; 60 °C, pH 3.6 sodium acetate buffer, with HP-β-CD, read-out: S0 (solubility with HP-β-CD)) of the same molecule?
**A.** 130 ± 20 µM (≈ 39.3 µg/mL)

**Q.** And the solubility at 60 min ([2]; 60 °C, pH 6.5 sodium phosphate buffer, with HP-β-CD, read-out: S0 (solubility with HP-β-CD))?
**A.** 96 ± 9 µM (≈ 29 µg/mL)

**Q.** And the solubility at 60 min ([2]; 60 °C, pH 8.5 sodium borate buffer, with HP-β-CD, read-out: S0 (solubility with HP-β-CD))?
**A.** 150 ± 27 µM (≈ 45.3 µg/mL)

**Q.** What about the DPPH antioxidant activity [3] of the same molecule?
**A.** 38.08 ± 2.7%

**Q.** And the “ABTS^•+ antioxidant activity” value [4]?
**A.** 77.42 ± 2.2%

From article PMC10574185, “Encapsulation and Biological Activity of Hesperetin Derivatives with HP-β-CD” (Molecules, 2023)
